Measured values: patent publication US11999683B2, “Lipocationic dendrimers and uses thereof” (priority 2015, dated 2024)

What was measured:
[1] = In vivo toxicity evaluation in transgenic mice bearing MYC-driven liver tumors; conditions: for survival after multiple injections of siCTR NPs: tumor-bearing mice, injected days 32, 36, 40, 44 at 3 mg siCTR/kg (75 mg dendrimer/kg)
Protocol: All experiments were approved by the Institutional Animal Care and Use Committees of The University of Texas Southwestern Medical Center and were consistent with local, state and federal regulations as applicable. Female C57BL/6 mice were purchased from Harlan Laboratories (Indianapolis, IN). Transgenic mice bearing MYC-driven liver tumors were generated by crossing the TRE-MYC strain with LAP-tTA strain. Mice bearing the LAP-tTA and TRE-MYC genotype were maintained on 1 mg/mL of dox, and MYC was induced by withdrawing dox. Power analysis was performed to anticipate required number of animals to achieve statistical significance.
(§1) Wild-type mice or transgenic mice bearing liver tumors were randomly divided into different groups. Mice received tail vein i.v. injections of dendrimer NPs containing siCTR. Their body weight was monitored daily. For transgenic mice bearing liver tumors, multiple tail vain injections were performed to simulate repeated dosing.
A well-established Tet-On MYC inducible transgenic liver cancer model ws chosen (FIG. 13A) (Nguyen et al., 2014). […] At the age of 32 days (p32), these sick transgenic mice bearing aggressive liver tumors were injected with 5A2-SC8 or 6A3-SC12 NPs at 3 mg siCTR/kg dosage (75 mg dendrimer/kg or 21 mg C12-200/kg). […] In contrast to the result in WT mice, injection of C12-200 LNPs to mice bearing aggressive tumors lost >20% weight after one day, despite receiving ˜3 times less lipid than 5A2-SC8 injected mice (FIG. 12D). […] In addition to being less toxic than benchmark compounds, 5A2-SC8 NPs are more efficacious because these dendrimers reduce clinical concern for dose limiting toxicity and enable a wider therapeutic window.

[2] = Biodistribution of Cy5.5-labeled siRNA in liver tumor-bearing mice; type: in vivo; conditions: Cy5.5-labeled siRNA 1 mg/kg i.v., 24 hours post-injection
Protocol: Female C57BL/6 mice or transgenic mice bearing liver tumors received tail vein i.v. injections with dendrimer NPs containing Cy5.5-siRNA at 1 mg/kg of siRNA in 200 μL. At 24 h post injection, mice were euthanized and organs were removed. The biodistribution was assessed by imaging whole organs with an IVIS Lumina System (Caliper Life Sciences) with the Cy5.5 filter setting.
For confocal imaging, the tissue was cryo-sectioned ([…]) and fixed using 4% paraformaldehyde at room temperature for 10 min. The slides were washed three times with PBS and blocked for 30 min in PBS with 1% albumin. Sections were then incubated for 30 min with Alexa Fluor 488 Phalloidin (1:200 dilution, Life Technologies) in PBS with 1% albumin. Slides were washed three times with 0.1% Tween 20 and mounted using ProLong Gold Antifade (Life Technologies). Sections were imaged using an LSM 700 point scanning confocal microscope (Zeiss) equipped with a 25× objective.
Since 5A2-SC8 balances low in vivo toxicity and effectiveness for silencing the hepatocellular target FVII, first, whether 5A2-SC8 NPs could deliver siRNA into tumor cells was examined. At the age of 41 days (p41), the livers of these transgenic mice are full of tumors (FIG. 14A). On p40, mice were injected intravenously with 5A2-SC8 NPs with Cy5.5-labeled siRNA at a dosage of 1 mg siRNA/kg. […]

[3] = system: Factor VII; assay: In vivo Factor VII silencing in mice; conditions: 1 mg siFVII/kg
Protocol: For in vivo delivery screening, female C57BL/6 mice received tail vein i.v. injections of PBS (negative control, n=3) or dendrimer NPs containing non-targeting siRNA (siCTR, negative control, n=3) or dendrimer NPs containing anti-Factor VII siRNA (siFVII, n=3) diluted in PBS (200 μL or less in total volume). After 48 h, body-weight gain/loss was measured and mice were anaesthetized by isofluorane inhalation for blood sample collection by retro-orbital eye bleed. Serum was isolated with serum separation tubes (Becton Dickinson) and Factor VII protein levels were analyzed by a chromogenic assay (Biophen FVII, Aniara Corporation). A standard curve was constructed using samples from PBS-injected mice and relative Factor VII expression was determined by comparing treated groups to an untreated PBS control.
Having identified dendrimers that can overcome intracellular barriers, next, the dendrimers that can overcome extracellular barriers to efficiently deliver siRNA in vivo were identified. […] Dendrimers were evaluated for their ability to silence Factor VII in hepatocytes because this blood clotting factor can be readily quantified from a small serum sample (Akinc et al., 2008; Semple et al., 2010). […] FVII activity was quantified 3 days post injection.

[4] = In vivo toxicity evaluation (body weight) in wild type mice; conditions: i.v., 4 mg siCTR/kg (100 mg dendrimer/kg or 28 mg C12-200/kg)
Protocol: as §1
To identify degradable dendrimers with the required balance of low toxicity and high potency required for liver cancer treatment, the degradable dendrimers were chose to evaluate their in vivo toxicity. In parallel, we analyzed C12-200 lipidoid LNPs wee chose as the best example of a non-hydrolyzable system previously shown to be potent in mice and non-human primates (Love et al., 2010). Lipidoids, as a class, are benchmark materials at the forefront of clinical research (Kanasty et al., 2013; Love et al., 2010; Sahay et al., 2013). Non-immunogenic control siRNA was used to best evaluate the toxicity of the individual dendrimers themselves. Dendrimer NPs were formulated at a weight ratio of 25:1 (dendrimer:siCTR), higher than necessary to better probe toxicity. C12-200 LNPs were prepared using identical formulation parameters as previously reported (Love et al., 2010). Size and zeta potential of each NP in PBS buffer was characterized. […] Each formulated NP was injected i.v. into wild type mice at a 4 mg siCTR/kg dose (100 mg dendrimer/kg or 28 mg C12-200/kg). […]

[5] = tumor-bearing mice p32, 3 mg siCTR/kg (75 mg dendrimer/kg)

Row | SMILES | tolerance in tumor-bearing mice ([1]; LAP-tTA/TRE-MYC transgenic, mouse, in vivo) | body weight loss ([1]; tumor-bearing mice p32, 3 mg siCTR/kg (75 mg dendrimer/kg or 21 mg C12-200/kg), after one day) | body weight recovery [1, 5] | survival after multiple injections of siCTR NPs [1] | siRNA accumulation in organs (fluorescence imaging) [2] | in vivo FVII knockdown [3] [%] | body weight change [4] | body weight loss ([1]; tumor-bearing mice p32, 3 mg siCTR/kg (75 mg dendrimer/kg), by the third day) [%]
1 | CCCCCCCCSCC(C)C(=O)OCCOC(=O)CCN(CCNCCN(CCC(=O)OCCOC(=O)C(C)CSCCCCCCCC)CCC(=O)OCCOC(=O)C(C)CSCCCCCCCC)CCNCCN(CCC(=O)OCCOC(=O)C(C)CSCCCCCCCC)CCC(=O)OCCOC(=O)C(C)CSCCCCCCCC (centres unmarked) [5A2-SC8] | up to 75 mg/kg | about 5% | quickly returned to their starting weight on the second day | well tolerated and not affect survival | siRNA accumulation in the cancerous liver, with only minor accumulation in the spleen and kidneys | > 95 | quicker recovery and gained weight normally after the first day | –
2 | CCCCCCCCCCCCSCC(C)C(=O)OCCOC(=O)CCN(CCC(=O)OCCOC(=O)C(C)CSCCCCCCCCCCCC)CCN(CCN(CCC(=O)OCCOC(=O)C(C)CSCCCCCCCCCCCC)CCC(=O)OCCOC(=O)C(C)CSCCCCCCCCCCCC)CCN(CCC(=O)OCCOC(=O)C(C)CSCCCCCCCCCCCC)CCC(=O)OCCOC(=O)C(C)CSCCCCCCCCCCCC (centres unmarked) [6A3-SC12] | – | – | could not recover | died seven days earlier compared to mice that received no treatment | – | – | quicker recovery and gained weight normally after the first day | 10
